Data: patent publication US9988635B2, “Modulation of growth hormone receptor expression and insulin-like growth factor expression” (Antisense Therapeutics Limited, priority 2003, dated 2018)
In the oligonucleotide strings, read from the 5' end, every base follows the letter of its sugar. An asterisk marks phosphorothioate; unmarked linkages are phosphodiester. Other units and linkages are bracketed, terminal groups are in braces. A string of capitals states the bases alone. e = 2'-O-(2-methoxyethyl) (MOE); [5mC] = 5-methylcytosine; d = 2'-deoxy (DNA)

What follows are substances tested on human growth hormone receptor mRNA (assay: Inhibition of human growth hormone receptor mRNA levels in MCF7 cells, quantitative real-time PCR). Conditions: averages from three experiments.
Type: cell-based
Parameters: concentration or dose not given beside the values
Protocol: The human breast carcinoma cell line MCF-7 was obtained from the American Type Culture Collection (Manassas, Va.). MCF-7 cells were routinely cultured in DMEM low glucose (Gibco/Life Technologies, Gaithersburg, Md.) supplemented with 10% fetal calf serum (Gibco/Life Technologies, Gaithersburg, Md.). Cells were routinely passaged by trypsinization and dilution when they reached 90% confluence. Cells were seeded into 96-well plates (Falcon-Primaria #3872) at a density of 7000 cells/well for use in RT-PCR analysis.
When cells reached 65-75% confluency, they were treated with oligonucleotide. For cells grown in 96-well plates, wells were washed once with 100 μL OPTI-MEM™-1 reduced-serum medium (Invitrogen Corporation, Carlsbad, Calif.) and then treated with 130 μL of OPTI-MEM™-1 containing 3.75 μg/mL LIPOFECTIN™ (Invitrogen Corporation, Carlsbad, Calif.) and the desired concentration of oligonucleotide. Cells are treated and data are obtained in triplicate. After 4-7 hours of treatment at 37° C., the medium was replaced with fresh medium. Cells were harvested 16-24 hours after oligonucleotide treatment.
Total RNA was isolated using an RNEASY 96™ kit and buffers purchased from Qiagen Inc. (Valencia, Calif.) following the manufacturer's recommended procedures. Briefly, for cells grown on 96-well plates, growth medium was removed from the cells and each well was washed with 200 μL cold PBS. 150 μL Buffer RLT was added to each well and the plate vigorously agitated for 20 seconds. 150 μL of 70% ethanol was then added to each well and the contents mixed by pipetting three times up and down. The samples were then transferred to the RNEASY 96™ well plate attached to a QIAVAC™ manifold fitted with a waste collection tray and attached to a vacuum source. Vacuum was applied for 1 minute. 500 μL of Buffer RW1 was added to each well of the RNEASY 96™ plate and incubated for 15 minutes and the vacuum was again applied for 1 minute. An additional 500 μL of Buffer RW1 was added to each well of the RNEASY 96™ plate and the vacuum was applied for 2 minutes. 1 mL of Buffer RPE was then added to each well of the RNEASY 96™ plate and the vacuum applied for a period of 90 seconds. The Buffer RPE wash was then repeated and the vacuum was applied for an additional 3 minutes. The plate was then removed from the QIAVAC™ manifold and blotted dry on paper towels. The plate was then re-attached to the QIAVAC™ manifold fitted with a collection tube rack containing 1.2 mL collection tubes. RNA was then eluted by pipetting 140 μL of RNAse free water into each well, incubating 1 minute, and then applying the vacuum for 3 minutes.
Quantitation of growth hormone receptor mRNA levels was accomplished by real-time quantitative PCR using the ABI PRISM™ 7600, 7700, or 7900 Sequence Detection System (PE-Applied Biosystems, Foster City, Calif.) according to manufacturer's instructions. This is a closed-tube, non-gel-based, fluorescence detection system which allows high-throughput quantitation of polymerase chain reaction (PCR) products in real-time. As opposed to standard PCR in which amplification products are quantitated after the PCR is completed, products in real-time quantitative PCR are quantitated as they accumulate. This is accomplished by including in the PCR reaction an oligonucleotide probe that anneals specifically between the forward and reverse PCR primers, and contains two fluorescent dyes. A reporter dye (e.g., FAM or JOE, obtained from either PE-Applied Biosystems, Foster City, Calif., Operon Technologies Inc., Alameda, Calif. or Integrated DNA Technologies Inc., Coralville, Iowa) is attached to the 5′ end of the probe and a quencher dye (e.g., TAMRA, obtained from either PE-Applied Biosystems, Foster City, Calif., Operon Technologies Inc., Alameda, Calif. or Integrated DNA Technologies Inc., Coralville, Iowa) is attached to the 3′ end of the probe. When the probe and dyes are intact, reporter dye emission is quenched by the proximity of the 3′ quencher dye. […]

Substance	% INHIB of human growth hormone receptor mRNA levels [%]
272347 (antisense eT*e[5mC]*eT*eA*e[5mC]*dA*d[5mC]*dT*dG*dA*dT*dG*dA*dT*dA*e[5mC]*eT*eT*eT*eA) [compound 272347]	62
272303 (antisense e[5mC]*e[5mC]*eA*eG*eA*dG*dA*dT*d[5mC]*d[5mC]*dA*dT*dA*d[5mC]*d[5mC]*eT*eG*eT*eA*eG) [compound 272303]	55
227490 (antisense eG*e[5mC]*eA*eT*eG*dA*dT*dT*dT*dT*dG*dT*dT*d[5mC]*dA*eG*eT*eT*eG*eG) [compound 227490]	67
227488 (antisense eA*eG*eT*eT*eG*dG*dT*d[5mC]*dT*dG*dT*dG*d[5mC]*dT*d[5mC]*eA*e[5mC]*eA*eT*eA) [compound 227488]	86
272333 (antisense eG*eT*eG*e[5mC]*eT*d[5mC]*dA*d[5mC]*dA*dT*dA*dG*d[5mC]*d[5mC]*dA*e[5mC]*eA*eT*eG*eA) [compound 272333]	72
272337 (antisense eA*eA*eA*e[5mC]*eA*dT*dA*dG*d[5mC]*d[5mC]*dA*dT*dT*d[5mC]*dA*eA*eT*eG*e[5mC]*eT) [compound 272337]	39
272345 (antisense e[5mC]*eA*eT*e[5mC]*eT*dA*dT*dT*dA*d[5mC]*dA*dA*dA*dT*dA*eA*e[5mC]*eA*eT*eG) [compound 272345]	24
272307 (antisense eG*eT*eG*eA*eA*dT*dT*dT*dA*dG*dG*d[5mC]*dT*d[5mC]*d[5mC]*eT*eT*eA*eG*eA) [compound 272307]	55
272305 (antisense eT*eT*eG*eT*e[5mC]*dT*dT*dT*dA*dG*dG*d[5mC]*d[5mC]*dT*dG*eG*eA*eT*eT*eA) [compound 272305]	68
272350 (antisense eA*eG*eG*e[5mC]*eT*dG*dT*dT*dG*dT*dG*dA*dA*dA*dT*eA*eG*eT*eA*eA) [compound 272350]	67
227453 (antisense e[5mC]*eA*eT*eA*eA*dT*d[5mC]*dA*dG*dG*dG*d[5mC]*dA*dT*dT*e[5mC]*eT*eT*eT*e[5mC]) [compound 227453]	52
272327 (antisense eG*eG*eA*e[5mC]*eA*dT*d[5mC]*d[5mC]*d[5mC]*dT*dG*d[5mC]*d[5mC]*dT*dT*eA*eT*eT*e[5mC]*eT) [compound 272327]	60
272342 (antisense eT*eA*eG*eT*eG*dA*dG*dA*dA*dA*dG*dA*dA*dA*dG*eT*eT*eT*e[5mC]*eT) [compound 272342]	45
272349 (antisense eA*eG*eT*e[5mC]*eT*dT*d[5mC]*d[5mC]*dA*dA*dA*d[5mC]*dA*d[5mC]*dA*e[5mC]*eA*eG*e[5mC]*eT) [compound 272349]	68
272348 (antisense e[5mC]*eA*e[5mC]*eA*eG*d[5mC]*dT*dT*dT*dG*dA*dA*dT*dT*dG*eA*eA*eT*eT*eA) [compound 272348]	57
227468 (antisense eT*e[5mC]*eA*eT*e[5mC]*dA*dA*dT*dA*dT*d[5mC]*dT*dA*dG*d[5mC]*eT*e[5mC]*eA*eA*eT) [compound 227468]	62
272344 (antisense eA*e[5mC]*eA*e[5mC]*eT*d[5mC]*dA*dA*dT*dT*d[5mC]*dT*dA*dG*d[5mC]*eT*eT*eT*eT*e[5mC]) [compound 272344]	60

Substance	% INHIB of human growth hormone receptor mRNA levels [%]
227464 (antisense e[5mC]*e[5mC]*eT*eT*eT*dA*dA*dT*d[5mC]*dT*dT*dT*dG*dG*dA*eA*e[5mC]*eT*eG*eG) [compound 227464]	58
272352 (antisense e[5mC]*e[5mC]*eA*eA*eA*dA*dT*dG*dA*d[5mC]*dA*dT*dT*d[5mC]*dT*eG*eA*eG*eA*e[5mC]) [compound 272352]	77
272339 (antisense eG*eT*eT*eT*eT*dA*d[5mC]*dA*dT*dA*dT*d[5mC]*d[5mC]*dA*dA*eA*e[5mC]*eT*eA*eT) [compound 272339]	72
272319 (antisense eA*eT*eT*eT*eT*d[5mC]*d[5mC]*dT*dT*d[5mC]*d[5mC]*dT*dT*dG*dA*eG*eG*eA*eG*eA) [compound 272319]	67
272315 (antisense e[5mC]*eA*eA*eT*eG*dA*dG*dT*dA*d[5mC]*dA*d[5mC]*dT*dG*dG*eA*eA*e[5mC]*eT*eG) [compound 272315]	53
272317 (antisense eA*eG*e[5mC]*e[5mC]*e[5mC]*dA*dA*dA*dT*dA*dT*dT*d[5mC]*d[5mC]*dA*eA*eA*eG*eA*eT) [compound 272317]	65
272311 (antisense eT*eT*eG*e[5mC]*eA*d[5mC]*dT*dA*dT*dT*dT*d[5mC]*dA*dT*d[5mC]*eA*eA*e[5mC]*eA*eG) [compound 272311]	47
272325 (antisense eA*eA*eG*eG*e[5mC]*dA*dT*dA*dA*dG*dA*dG*dA*dT*d[5mC]*eT*eG*e[5mC]*eT*eT) [compound 272325]	66
227500 (antisense e[5mC]*eA*eT*eA*eG*d[5mC]*dA*dG*d[5mC]*dA*dA*dA*dG*dT*dA*eG*e[5mC]*eA*eG*eA) [compound 227500]	69
272313 (antisense eA*eT*eT*eG*e[5mC]*dG*dT*dG*dG*dT*dG*d[5mC]*dT*dT*d[5mC]*e[5mC]*e[5mC]*eA*eT*e[5mC]) [compound 272313]	77
272356 (antisense eA*eT*eG*eG*eA*dG*dG*d[5mC]*dT*dG*dG*dA*dG*dG*dT*eT*e[5mC]*eA*eA*eA) [compound 272356]	63
227469 (antisense e[5mC]*eT*eT*eA*eG*dA*dA*dG*dT*d[5mC]*dT*dG*dT*d[5mC]*dT*eG*eT*eG*eT*e[5mC]) [compound 227469]	63
272346 (antisense e[5mC]*eT*e[5mC]*eT*eT*dG*dG*dA*dG*dA*dA*dA*dA*d[5mC]*d[5mC]*eA*eT*eA*eG*e[5mC]) [compound 272346]	67
272302 (antisense eG*eA*eT*e[5mC]*e[5mC]*dA*dT*dA*d[5mC]*d[5mC]*dT*dG*dT*dA*dG*eG*eA*e[5mC]*e[5mC]*eT) [compound 272302]	60
272340 (antisense e[5mC]*eA*eT*e[5mC]*eA*dA*d[5mC]*d[5mC]*dA*dA*dG*dA*dT*dT*dT*eG*eG*eT*eG*eA) [compound 272340]	69
272360 (antisense eT*eA*eT*eT*eA*dG*dT*dT*dA*d[5mC]*d[5mC]*dT*dT*dG*dA*eG*eG*eA*eG*eA) [compound 272360]	0
